# Columns and labels:
# Format in all cases: cell-based, human
# [1] = tested on: endothelial barrier of bioengineered vessels; test: Endothelium integrity: Evans blue extravasation; details: 0.5% in circulation loop 10 min, PBS wash 20 min
# Description: Evans blue (Sigma-Aldrich) was injected at a final concentration of 0.5% in the circulation loop of the bioreactor for 10 min followed by continuous PBS washing for 20 min. Vessels were cut open longitudinally and en face preparations were analysed macroscopically with photo documentation. Restriction of paracellular transport was determined by measuring FITC dextran extravasation to the tissue chamber as described ([Gaillard et al., 2001]). […] After 1 hr tissue media was collected, fluorescent was read at RT on an EnSpire 2300 Multilabel Plate Reader (492Ex/518Em) and the permeability coefficient (Papp) was calculated using the following equation: Papp=(dQ/dt)*(1/A*C0*60) where dQ/dt is the amount of FITC-dextran transported per minute (ng/min), A is the surface area of the tissue (cm [[Attems and Jellinger, 2014]]), C0 is the initial concentration of FITC-Dextran (ng/ml) and 60 is the conversion from minutes to seconds.
# [2] = tested on: bioengineered tripartite vessels; test: Aβ transport across tripartite bioengineered cerebral vessels (ELISA); details: for transport of fibrils compared to monomers: tripartite vessels, pre-aggregated (37°C, 48 hr) or monomeric Aβ 1 μM anteluminal
# Description: Bioengineered constructs were fabricated using a dynamic, semi-pulsatile flow bioreactor system. Tubular biodegradable scaffolds (length 1.5 cm and inner diameter 2 mm) were produced as described ([Robert et al., 2013a]; [Robert et al., 2017]) with minor modifications. Briefly, non-woven polyglycolic acid (PGA, Biomedical Structure, Warwick, RI) meshes (thickness: 1 mm and density: 70 mg/cc) were dip-coated with polycaprolactone (PCL) and polylactate (PLA) by dipping PGA mesh in a solution of 1.75% (w/w) PCL/PLA/tetrahydrofuran (THF) solution (Sigma-Aldrich, St. Louis, MO), shaped into tubes using heat, and externally coated with a 10% PCL/THF (w/w) solution. Scaffolds were sterilized by immersion in 70% ethanol for 30 min followed by three PBS washes and then immersion in advanced DMEM supplemented with 10% FBS for at least 12 hr. UCMFB were seeded at density of 2−3 × 10^6 cells/cm^2 on the inner surface of the scaffold using fibrin (fibrinogen 10 mg clottable protein/ml PBS and thrombin 100–10 mU/ml PBS) as a cell carrier that was added directly to the scaffold, then incubated under static conditions for a minimum of 3 days before exposure to dynamic flow. The flow of nutrient medium (Advanced DMEM supplemented with 10% FBS, 1% L-glutamine and 0.05% Pen/Strep) was directed through the lumen of the bioreactor circulation loop to mimic blood flow for a minimum of one week. Vascular intermediates were then seeded with HUVEC (1 × 10^6 cells/cm^2) and cultivated first in static conditions for a minimum of 5 days in EGM−2 supplemented as above. For bipartite vessels, after the static phase, vascular grafts were placed back in the bioreactor for 14 additional days with increasing medium flow to a final rate of 10 ml/min by the 10th day). For tripartite vessels, after the static phase after HUVEC addition, primary astrocytes were seeded (1 × 10^6 cells/cm^2) using fibrin as a cell carrier as above on the antelumen side of the tissue. After 5 min at RT, grafts were placed under flow conditions with EGM-2 supplemented as above in the circulation chamber and complete astrocyte medium in the tissue chamber for 14 additional days with increasing medium flow to 10 ml/min by the 10th day.
# The HFIP was removed by evaporation overnight and stocks were stored at −20°C. On the day of the assay, soluble monomers were prepared by reconstituting the peptide film in DMSO to 5 mM, diluted further to 100 µM in RPMI without FBS. 100 μl of Aβ solution was injected in the tissue chamber containing 900 μl of DMEM (Gibco) without FBS to the desired concentration using a syringe under flow conditions. […] For luminal recovery, 100 μl circulating medium was collected at the indicated time.
# All experiments were conducted under an approved clinical protocol (UBC Clinical Ethics Research Board H14-03357). Upon receipt of written informed consent, 100 ml of fasted blood was collected from normolipidemic healthy donors into vacutainer tubes containing EDTA. Plasma HDL (1.063–1.21 g/ml) was isolated by sequential potassium bromide gradient ultracentrifugation as described ([Robert et al., 2013b]). […] Total protein concentration was assessed using the BCA assay (Thermofisher Scientific). Recombinant apoE2 and apoE4 were commercially purchased and solubilized following the manufacture’s instructions (ABCAM, apoE2 ab55210, apoE3 ab123764 and apoE4 ab50243). […] ApoE concentrations were measured using ELISA as previously described ([Fan et al., 2016]). […]
# [3] = tested on: bioengineered tripartite vessels; test: Aβ accumulation in tripartite bioengineered cerebral vessels (ELISA); details: GW3965 0.8 μM 72 hr, HDL 200 μg/ml luminal
# Description: Bioengineered constructs were fabricated using a dynamic, semi-pulsatile flow bioreactor system. Tubular biodegradable scaffolds (length 1.5 cm and inner diameter 2 mm) were produced as described ([Robert et al., 2013a]; [Robert et al., 2017]) with minor modifications. Briefly, non-woven polyglycolic acid (PGA, Biomedical Structure, Warwick, RI) meshes (thickness: 1 mm and density: 70 mg/cc) were dip-coated with polycaprolactone (PCL) and polylactate (PLA) by dipping PGA mesh in a solution of 1.75% (w/w) PCL/PLA/tetrahydrofuran (THF) solution (Sigma-Aldrich, St. Louis, MO), shaped into tubes using heat, and externally coated with a 10% PCL/THF (w/w) solution. Scaffolds were sterilized by immersion in 70% ethanol for 30 min followed by three PBS washes and then immersion in advanced DMEM supplemented with 10% FBS for at least 12 hr. […]
# All experiments were conducted under an approved clinical protocol (UBC Clinical Ethics Research Board H14-03357). […] Total protein concentration was assessed using the BCA assay (Thermofisher Scientific). […] ApoE concentrations were measured using ELISA as previously described ([Fan et al., 2016]). […]
# [4] = tested on: apoE secretion by astrocytes; test: Native apoE secretion by astrocytes in tripartite vessels (ELISA); details: astrocytes APOE3/E3, GW3965 1 μM circulated through lumen 72 hr
# Description: All experiments were conducted under an approved clinical protocol (UBC Clinical Ethics Research Board H14-03357). Upon receipt of written informed consent, 100 ml of fasted blood was collected from normolipidemic healthy donors into vacutainer tubes containing EDTA. Plasma HDL (1.063-1.21 g/ml) was isolated by sequential potassium bromide gradient ultracentrifugation as described ([Robert et al., 2013b]). The purity of the HDL preparations was verified by sodium dodecyl sulfate-polyacrylamide gel electrophoresis (SDS-PAGE) followed by Coomassie blue staining to ensure no LDL or albumin contamination (not shown). Total protein concentration was assessed using the BCA assay (Thermofisher Scientific). Recombinant apoE2 and apoE4 were commercially purchased and solubilized following the manufacture's instructions (ABCAM, apoE2 ab55210, apoE3 ab123764 and apoE4 ab50243). […] ApoE concentrations were measured using ELISA as previously described ([Fan et al., 2016]). Briefly, ELISA plates were coated overnight with anti-human apoE mAB […] antibody (MabTech, Cincinnati, OH, RRID: AB_1925746) at 1.55 μg/mL in PBS at 4°C, washed two times with PBST (0.05% Tween 20 in PBS), and blocked with 0.1% Blocker A (MesoScale Discovery, Rockville, MA) in PBST. […] Fluorescence was read after 15 min at RT on an EnSpire 2300 Multilabel Plate Reader (325Ex/420Em).
# NO synthase = test: NO measurement: conversion of L-3H-arginine to L-3H-citruline in tripartite vessels
# Description: NO synthesis was measured as described ([Robert et al., 2013a]) using a commercial NOS activity assay kit (Caymenchemical, Ann Arbor, MI). Briefly, a 2–3 mm ring of vascular tissue was mechanically ground in 150 μl of ice cold homogenized buffer (25 mM Tris-Cl, pH7.4, 1 mM EDTA and 1 mM EGTA) and centrifuged 15 min at 4°C at 10,000 g. The supernatant was aliquoted and incubated in reaction buffer containing 25 mM Tris-Cl, pH7.4, 0.25 mM EDTA, 0.6 mM CaCl2, 1 mM NADP, 200 nM calmodulin, 3 µM tetrahydrobiopterin, 1 µM flavin adenine dinucleotide, 1 µM flavin adenine monoucleotide and 0.2 µCi L-^3H-arginine; PerkinElmer, Waltham, MA) in the presence of 10 nM acetylcholine (Ach), 0.2 mg/ml HDL or 1 mM L-NG-nitroarginine methyl ester (L-NAME). After 60 min at 37°C, the reaction was stopped by adding 400 μl of stop buffer ([…] HEPES, 5 mM EDTA, pH 5.5). The solution was loaded onto an ion exchange column equilibrated with stop buffer to separate L-^3H-citruline from L-^3H-arginine. Scintillation mix (Ultimate Gold, PerkinElmer) was added to the supernatant and counted using LS6500 β-counter (Beckman Coulter, Brea, CA). The percent citrulline formed was calculated as follows: % conversion = (cpm reaction-cpm background)/cpm total *100.
# [5] = tested on: bioengineered bipartite vessels; test: Aβ fibrillization in bioengineered vessels (Thioflavin-S staining, Thioflavin-T quantification)
# [6] = tested on: bioengineered bipartite vessels; test: Aβ transport from anteluminal tissue chamber to luminal circulation across bipartite vessels (ELISA); details: 1 μM monomers anteluminal, luminal medium sampled over 4 hr
# Description: Bioengineered constructs were fabricated using a dynamic, semi-pulsatile flow bioreactor system. Tubular biodegradable scaffolds (length 1.5 cm and inner diameter 2 mm) were produced as described ([Robert et al., 2013a]; [Robert et al., 2017]) with minor modifications. Briefly, non-woven polyglycolic acid (PGA, Biomedical Structure, Warwick, RI) meshes (thickness: 1 mm and density: 70 mg/cc) were dip-coated with polycaprolactone (PCL) and polylactate (PLA) by dipping PGA mesh in a solution of 1.75% (w/w) PCL/PLA/tetrahydrofuran (THF) solution (Sigma-Aldrich, St. Louis, MO), shaped into tubes using heat, and externally coated with a 10% PCL/THF (w/w) solution. Scaffolds were sterilized by immersion in 70% ethanol for 30 min followed by three PBS washes and then immersion in advanced DMEM supplemented with 10% FBS for at least 12 hr. UCMFB were seeded at density of 2−3 × 10^6 cells/cm^2 on the inner surface of the scaffold using fibrin (fibrinogen 10 mg clottable protein/ml PBS and thrombin 100–10 mU/ml PBS) as a cell carrier that was added directly to the scaffold, then incubated under static conditions for a minimum of 3 days before exposure to dynamic flow. The flow of nutrient medium (Advanced DMEM supplemented with 10% FBS, 1% L-glutamine and 0.05% Pen/Strep) was directed through the lumen of the bioreactor circulation loop to mimic blood flow for a minimum of one week. […]
compound,measurement,setting,value
Cc1cc(-c2ccc(/N=N/c3ccc4c(S(=O)(=O)O)cc(S(=O)(=O)O)c(N)c4c3O)c(C)c2)ccc1/N=N/c1ccc2c(S(=O)(=O)O)cc(S(=O)(=O)O)c(N)c2c1O [Evans blue],Evans blue penetration into tissue without EC,[1]; tissue prepared without EC,penetrated into tissue prepared without EC
same,Evans blue penetration into vessels with endothelium,[1]; vessels seeded with EC,excluded
O=C(O)Cc1cccc(OCCCN(Cc2cccc(C(F)(F)F)c2Cl)CC(c2ccccc2)c2ccccc2)c1 [GW3965],effect on Aβ40 transport through tripartite vessels over 4 hr,"[2]; Aβ40 1 μM anteluminal, GW3965 0.8 μM 72 hr, HDL 200 μg/ml luminal",neither GW3965 alone nor HDL alone modified the rate
same,effect on Aβ42 transport through tripartite vessels over 4 hr,"[2]; Aβ42 1 μM anteluminal, GW3965 0.8 μM 72 hr, HDL 200 μg/ml luminal",neither GW3965 alone nor HDL alone modified the rate
same,effect on accumulation of Aβ40 within tripartite tissues after 24 hr,[3]; Aβ40 1 μM anteluminal,"neither GW3965, HDL, nor both GW3965 and HDL affected accumulation"
same,effect on accumulation of Aβ42 within tripartite tissues after 24 hr,[3]; Aβ42 1 μM anteluminal,"neither GW3965, HDL, nor both GW3965 and HDL affected accumulation"
same,secretion of native apoE into medium,[4],significantly stimulated the secretion of native apoE
"COC(=O)[C@@H](N)CCCNC(N)=N[N+](=O)[O-] [L-NAME, L-NG-nitroarginine methyl ester]",NO production in the presence of NO synthase inhibitor,"NO synthase; 1 mM L-NAME with Ach or HDL stimulation, 60 min",the conversion was blocked
CC(=O)OCC[N+](C)(C)C [acetylcholine],NO production: conversion of L-3H-arginine to L-3H-citruline,"NO synthase; 10 nM acetylcholine or 200 μg/ml HDL, 60 min at 37°C",significant increase
Aβ40 fibrils: Aβ40 incubated at 37°C for 48 hr after reconstitution in RPMI,transport of fibrils compared to monomers,[2]; over 4 hr,significantly slower transport
Aβ42 fibrils: Aβ42 incubated at 37°C for 48 hr after reconstitution in RPMI,transport of fibrils compared to monomers,[2]; over 4 hr,significantly slower transport
"Aβ42: Recombinant Aβ42 peptide (California Peptide Research), soluble monomers","Aβ recovery into circulation medium, tripartite compared to bipartite vessels","[2]; 1 μM monomers anteluminal, over 4 hr",increased
same,beta-sheet formation in tissue lysates (Thioflavin-T),"[5]; 1 μM monomers anteluminal, RIPA lysate, 20 μM Thioflavin-T, ex 440 nm / em 490 nm",increasing signal over time
same,Aβ fibrillization in the bioengineered vessels (Thioflavin-S),"[5]; monomers 0, 0.1, 1.0 and 10 μM anteluminal, 48 hr, Thioflavin-S staining",dose-dependent fibrillization
same,"Aβ transport into circulating medium, bioengineered vessels versus scaffold-only controls",[6],transported at a slower rate

# From PMC5634784, “Clearance of beta-amyloid is facilitated by apolipoprotein E and circulating high-density lipoproteins in bioengineered human vessels” (eLife, 2017)
